According to US9023809B2, “Phenylalanine dipeptide derivatives, compositions and use thereof” (The Key Laboratory of Chemistry For Natural Products of …, priority 2008, dated 2015):
≈ marks a conversion by molar mass, not a printed value. *1 amine or outer side, *2 acyl side, *3 side chain or, on linkers, in order; H or OH if unused. Where a SMILES comes first, the peptide text is derived from it. [ ]: non-standard residue; d: D form. The star is where a group is joined. Phe(4-NH2) = Nc1ccc(C[C@H](N)C(=O)O)cc1; Suc = O=C(CCC(=O)[*:2])[*:1]; 4Abz = Nc1ccc(C(=O)O)cc1; Propionyl = CCC(=O)*; Bz = O=C(c1ccccc1)*

What follows are compounds tested on 2.2.15 cells (assay: Cytotoxicity (TC50, median toxic concentration) in 2.2.15 cells).
Format: cell-based
Description: Cell control wells were simultaneously set up. […] IC50 and SI were calculated, respectively.

| Compound | TC50 [µg/mL] |
| --- | --- |
| COC(=O)[C@H](Cc1ccccc1)NC(=O)[C@H](Cc1ccccc1)NC(=O)c1ccccc1 [Example 01, methyl N-(N-benzoyl-L-phenylalanyl)-L-phenylalaninate] (Bz-Phe-Phe-OMe) | 1101.11 (≈ 2560 µM) |
| O=C(N[C@@H](Cc1ccccc1)C(=O)N[C@H](CO)Cc1ccccc1)c1ccccc1 [Example 02, N-(N-benzoyl-L-phenylalanyl)-L-phenylalaninol] | 231.12 (≈ 574 µM) |
| O=C(N[C@@H](Cc1ccccc1)C(=O)N[C@H](CO)Cc1ccccc1)c1ccccc1Cl [Example 08, N-(N-2-chloro-benzoyl-L-phenylalanyl)-L-phenylalaninol] | 166.70 (≈ 382 µM) |
| COC(=O)[C@H](Cc1ccc(O)cc1)NC(=O)[C@H](Cc1ccccc1)NC(=O)c1ccc(C)cc1 [Example 17, methyl N-(N-^4-methyl-benzoyl-L-phenylalanyl)-L-tyrosinate] | 465.23 (≈ 1010 µM) |
| CC(=O)Nc1ccc(C[C@H](NC(=O)c2ccccc2C(=O)[O-])C(=O)N[C@H](CO)Cc2ccccc2)cc1.[Na+] [Example 53, N-[N-(2-carboxyl-benzoyl)-4-acetamido-L-phenylalanyl]-L-phenylalaninol sodium salt] | 354.18 |
| O=C(O)CCC(=O)OC[C@H](Cc1ccccc1)NC(=O)[C@H](Cc1ccccc1)NC(=O)c1ccccc1 [Example 56, N-(N-benzoyl-L-phenylalanyl)-O-(3-carboxyl-propionyl)-L-phenylalaninol] | 333.33 (≈ 663 µM) |
| CCC(=O)Nc1ccc(C[C@H](NC(=O)c2ccc(Cl)cc2)C(=O)N[C@@H](Cc2ccccc2)C(=O)OC)cc1 [Example 70, methyl N-[N-(4-chloro-benzoyl)-4-propionamido-L-phenylalanyl]-L-phenylalaninate] | 17.81 (≈ 33.2 µM) |
| CN(C)CC(=O)Nc1ccc(C(=O)N[C@@H](Cc2ccccc2)C(=O)N[C@H](CO)Cc2ccccc2)cc1 [Example 76, N-[N-4-(dimethylaino-acetamido)-benzoyl-L-phenylalanyl]-L-phenylalaninol] | 37.04 (≈ 73.7 µM) |
| COC(=O)[C@H](Cc1ccccc1)NC(=O)[C@H](Cc1ccccc1)NC(=O)c1ccc(NC(=O)CN(C)C)cc1 [Example 81, methyl N-[N-4-(dimethylamino-acetamido)-benzoyl-L-phenylalanyl]-L-phenylalaninate] | 58.64 (≈ 111 µM) |
| COC(=O)[C@H](Cc1ccccc1)NC(=O)[C@H](Cc1ccccc1)NC(=O)c1ccc(NC(=O)CN2CCCC2)cc1 [Example 82, methyl N-{N-[4-(1-pyrrolidyl)acetamido-benzoyl]-L-phenylalanyl}-L-phenylalaninate] | 59.19 (≈ 106 µM) |
| O=C([O-])CCC(=O)Nc1ccc(C(=O)N[C@@H](Cc2ccccc2)C(=O)N[C@@H](Cc2ccccc2)C(=O)[O-])cc1.[Na+].[Na+] [Example 92, N-[N-4-(3-carboxyl-propionamido)-benzoyl-L-phenylalanyl]-L-phenylalanine sodium salt] ({Suc-4Abz}-Phe-Phe-OH) | 379.36 |
| O=C(N[C@@H](Cc1ccc(O)cc1)C(=O)N[C@@H](Cc1ccccc1)C(=O)O)c1ccccc1 [Example 93, N-(N-benzoyl-L-tyrosyl)-L-phenylalanine] (Bz-Tyr-Phe-OH) | 577.35 (≈ 1330 µM) |
| CCC(=O)Nc1ccc(C[C@H](NC(=O)[C@H](Cc2ccccc2)NC(=O)c2ccccc2)C(=O)O)cc1 [Example 94, N-(N-benzoyl-L-phenylalanyl)-4-propionamido-L-phenylalanine] (Bz-Phe-[Phe(4-NH2)](Propionyl)-OH) | 561.21 (≈ 1150 µM) |
| CC(=O)Nc1ccc(C[C@H](NC(=O)[C@H](Cc2ccc(O)cc2)NC(=O)c2ccccc2)C(=O)[O-])cc1.[Na+] [Example 95, N-(N-benzoyl-L-tyrosyl)-4-acetamido-L-phenylalanine sodium salt] (Bz-Tyr-[Phe(4-NH2)](Ac)-OH) | 79.46 |
| CC(=O)Nc1ccc(C[C@H](NC(=O)[C@H](Cc2ccc(O)cc2)NC(=O)c2ccc(C)cc2)C(=O)O)cc1 [Example 96, N-(N-4-methyl-benzoyl-L-tyrosyl)-4-acetamido-L-phenylalanine] | 199.67 (≈ 397 µM) |
